Source: ChEMBL document CHEMBL3804809, “Fatty Acid Transport Proteins: Targeting FATP2 as a Gatekeeper Involved in the Transport of Exogenous Fatty Acids” (Medchemcomm, 2016)
Blank lines part the entries; values can stand above or below the compound they belong to.

How the values were obtained:
[1] = biological target: Long-chain fatty acid transport protein 2 (Homo sapiens, UniProt O14975); assay: Inhibition of FATP2 in human HepG2 cells assessed as decrease in fatty acid transport after 5 mins by trypan blue dye based fluorescence quenching method; type: cell-based
[2] = tested on: Mus musculus; assay: Inhibition of 3C18-oleate absorption in tyloxapol-treated C57BL/6 mouse plasma at 300 mg/kg administered through gavage for 1 hr followed by 3C18-oleate addition measured after 0.5 to 6 hrs by LC/MS-MS analysis; type: functional; conditions: C57BL/6, Plasma, po
[3] = tested on: Mus musculus; assay: Upregulation of FATP2 mRNA level in C57BL mouse small intestine at 0.01% administered through diet for 3 days by RT-PCR analysis; type: functional
[4] = tested on: Mus musculus; assay: Downregulation of FATP2 mRNA level in […] null C57BL mouse small intestine at 0.01% administered through diet for 3 days by RT-PCR analysis; type: functional
[5] = tested on: Mus musculus; assay: Downregulation of FATP2 mRNA level in […] null C57BL mouse small intestine at 0.1% administered through diet for 3 days by RT-PCR analysis; type: functional
[6] = tested on: Mus musculus; assay: Upregulation of FATP2 mRNA level in C57BL mouse small intestine at 0.1% administered through diet for 3 days by RT-PCR analysis; type: functional

Sequence of Long-chain fatty acid transport protein 2 (O14975 whole entry, looked up): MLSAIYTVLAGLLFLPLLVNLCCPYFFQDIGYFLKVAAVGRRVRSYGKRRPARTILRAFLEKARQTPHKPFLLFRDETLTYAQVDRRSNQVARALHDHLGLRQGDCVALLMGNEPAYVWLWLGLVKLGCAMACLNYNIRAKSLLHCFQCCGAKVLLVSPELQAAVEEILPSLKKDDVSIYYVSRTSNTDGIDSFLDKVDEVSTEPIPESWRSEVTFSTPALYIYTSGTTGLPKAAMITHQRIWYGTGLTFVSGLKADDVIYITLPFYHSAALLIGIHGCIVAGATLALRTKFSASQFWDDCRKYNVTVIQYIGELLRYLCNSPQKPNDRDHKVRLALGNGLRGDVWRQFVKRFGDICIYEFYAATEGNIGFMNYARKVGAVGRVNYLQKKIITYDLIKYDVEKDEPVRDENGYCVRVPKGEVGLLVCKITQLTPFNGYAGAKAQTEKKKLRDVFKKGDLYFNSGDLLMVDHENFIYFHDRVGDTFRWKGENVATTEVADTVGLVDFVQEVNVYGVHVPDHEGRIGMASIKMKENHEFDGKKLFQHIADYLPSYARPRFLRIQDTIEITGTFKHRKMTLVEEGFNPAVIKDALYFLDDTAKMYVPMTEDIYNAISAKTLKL

IC50 [1]: 6.7 µM
SMILES: O=C1Nc2ccc(Br)cc2C12NN=C(c1ccccc1)S2 (configuration not stated)
inhibition in vivo at 300 mg/kg [2]: 80%

IC50 [1]: 6.3 µM
SMILES: O=c1cc(-c2ccc([N+](=O)[O-])cc2)[nH]c2c(-c3ccc(Cl)cc3)c(Cc3ccccc3)nn12

SMILES: CC(C)(Sc1ccc(CCN(CCCCC2CCCCC2)C(=O)NC2CCCCC2)cc1)C(=O)O [GW7647]
fold change (FC) [3]: 4
fold change (FC) [4]: 2

SMILES: Cc1cccc(Nc2cc(Cl)nc(SCC(=O)O)n2)c1C [PIRINIXIC ACID]
fold change (FC) [5]: 2
fold change (FC) [6]: 4
